Experimental data as given in patent US11866479B2, “HIV antibody derivatives with dual antiviral and immunomodulatory activities from CD4 and GP41” (priority 2016, dated 2024).

Assays:
HIV-1 strain BaL = assay: Neutralization assay (TZM-bl, pseudovirus), BaL isolate; type: cell-based
Method: HIV-1 isolates NL4-3, BaL, AC10, SVBP6, SVBP8, SVBP11, SVBP12, SVBP14, SVBP15, SVBP17, SVBP18 and SVBP19 were generated as pseudoviruses using Env expression plasmids and the pSG3 vector. […] Cell-free virus neutralization by the antibody derivatives was tested by a standard TZM-bl based assay. […] Briefly, in a 96-well culture plate, 100 of previously diluted antibody derivatives were preincubated with 50 μL of pseudovirus stock, using 200 TCID50 (tissue culture infectious doses) at 37° C. for one hour. Then, 100 containing 10,000 TZM-bl luciferase-reporter target cells per well were added. Plates were cultured at 37° C. and 5% CO2 for 48 hours. Serial dilutions of the antibody derivatives were tested, from 1000 to 0.1 ng/mL. TZM-bl reporter cells were treated with dextran (Sigma-Aldrich, Saint Louis, Mo., USA) to enhance infectivity. A luciferase substrate, Britelite Plus (PerkinElmer, Inc., Waltham, Mass., USA), was used for the readout. Non-linear fit of neutralization data was calculated using normalized values fitted to a one site inhibition curve with variable Hill slope. All statistical analyses and non-linear fitting were performed using the GraphPad Prism v5.0 software.

[1] = system: panel of HIV subtype B viruses; assay: Neutralization assay against panel of HIV subtype B viruses (SVBP isolates); type: cell-based, HIV-1
Method: HIV-1 isolates NL4-3, BaL, AC10, SVBP6, SVBP8, SVBP11, SVBP12, SVBP14, SVBP15, SVBP17, SVBP18 and SVBP19 were generated as pseudoviruses using Env expression plasmids and the pSG3 vector. […] Cell-free virus neutralization by the antibody derivatives was tested by a standard TZM-bl based assay. […] Briefly, in a 96-well culture plate, 100 of previously diluted antibody derivatives were preincubated with 50 μL of pseudovirus stock, using 200 TCID50 (tissue culture infectious doses) at 37° C. for one hour. Then, 100 containing 10,000 TZM-bl luciferase-reporter target cells per well were added. Plates were cultured at 37° C. and 5% CO2 for 48 hours. Serial dilutions of the antibody derivatives were tested, from 1000 to 0.1 ng/mL. TZM-bl reporter cells were treated with dextran (Sigma-Aldrich, Saint Louis, Mo., USA) to enhance infectivity. A luciferase substrate, Britelite Plus (PerkinElmer, Inc., Waltham, Mass., USA), was used for the readout. Non-linear fit of neutralization data was calculated using normalized values fitted to a one site inhibition curve with variable Hill slope. All statistical analyses and non-linear fitting were performed using the GraphPad Prism v5.0 software. […]

HIV-1 strain NL4-3 = assay: Neutralization assay (TZM-bl, pseudovirus), NL4-3 isolate; type: cell-based
Method: HIV-1 isolates NL4-3, BaL, AC10, SVBP6, SVBP8, SVBP11, SVBP12, SVBP14, SVBP15, SVBP17, SVBP18 and SVBP19 were generated as pseudoviruses using Env expression plasmids and the pSG3 vector. See Sanchez-Palomino S, et al., Vaccine 2011; 29:5250-5259. Cell-free virus neutralization by the antibody derivatives was tested by a standard TZM-bl based assay. See Li, 2005, supra. Briefly, in a 96-well culture plate, 100 of previously diluted antibody derivatives were preincubated with 50 μL of pseudovirus stock, using 200 TCID50 (tissue culture infectious doses) at 37° C. for one hour. Then, 100 containing 10,000 TZM-bl luciferase-reporter target cells per well were added. Plates were cultured at 37° C. and 5% CO2 for 48 hours. […] A luciferase substrate, Britelite Plus (PerkinElmer, Inc., Waltham, Mass., USA), was used for the readout. Non-linear fit of neutralization data was calculated using normalized values fitted to a one site inhibition curve with variable Hill slope. […]
Briefly, in a 96-well culture plate, 100 μL of previously diluted plasma samples were preincubated with 50 μL of pseudovirus stock, using 200 TCID50 at 37° C. for one hour. […] A luciferase substrate, Britelite Plus (PerkinElmer, Inc., Waltham, Mass., USA), was used for the readout. Non-linear fit of neutralization data was calculated using normalized values fitted to a one site inhibition curve with variable Hill slope. […]

Substance: MOLECULE-0: CD4-IgG1 fusion protein, SEQ ID NO:11
- blocking the infectivity of BaL (in words) (HIV-1 strain BaL): lower neutralizing activity
- neutralization of panel of HIV subtype B isolates (in words) [1]: unable to neutralize primary isolates at 100 ng/mL
- blocking the infectivity of NL4-3 (in words) (HIV-1 strain NL4-3): lower neutralizing activity
